The values below come from US20230286943A1, “IL-17A MODULATORS” (SANOFI, priority 2020, published 2023).

Marks after values point to notes of the source that are not given here.

In one experiment the target is human recombinant IL-17A (Homo sapiens (Human), UniProt Q16552). The experiment in a line: IL-17A AlphaLISA Assay (competition: block binding of IL-17A to its receptor IL-17RA). The conditions noted are these: compounds pre-incubated with IL-17A for 30 min (indicated by *). As to the method: The ability of the compounds to block binding of IL-17A to its receptor, IL-17RA, was analysed in a competition assay using AlphaLISA technology (Perkin Elmer). The assay is a bead based AlphaLISA where the IL-17RA is captured on the acceptor bead via an Fc tag and IL-17A is captured on the streptavidin donor bead via a biotinylated anti-IL-17A antibody.
Chain of human recombinant IL-17A (Q16552 24-155): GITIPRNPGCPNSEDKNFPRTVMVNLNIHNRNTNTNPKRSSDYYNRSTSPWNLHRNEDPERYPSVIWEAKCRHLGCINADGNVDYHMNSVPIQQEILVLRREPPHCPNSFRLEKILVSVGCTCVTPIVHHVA
Assay buffer was prepared by adding 0.05% Tween-20 (v/v) and 0.1% BSA to Phosphate Buffered Saline (PBS). The assay was carried out in 384-well white low volume plates (Corning 4512). 10 μL of a 7.5 nM stock of human recombinant IL-17A (R&D Systems 7955-IL/CF) diluted in assay buffer was dispensed into the assay plate and compounds or DMSO vehicle control were added in a volume of 75 nL using a D300 dispenser (Hewlett Packard). The compounds were pre-incubated with the IL-17A for 24 h at room temperature (or for 30 min, where indicated by * in Table A below) prior to addition of 5 μL of a 5 nM stock of human recombinant IL-17RA/Fc chimera (R&D Systems 177-IR-100) diluted in assay buffer. The IL-17A was incubated with the receptor for a further 90 minutes at room temperature before addition of 5 μL of a mixture of anti-human Fc IgG acceptor beads (75 μg/mL, Perkin Elmer AL103C) and anti-IL-17A biotin conjugated antibody (5 nM, Enzo Life Sciences, ENZ-ABS278-0100) in assay buffer. After a further 30 min incubation at room temperature, 5 μL of streptavidin donor beads (75 μg/mL, Perkin Elmer 6760002S) were added and the plate was incubated for 3 h in the dark.
The luminescence signal was measured using an Enspire plate reader (Perkin Elmer) with excitation at 680 nm and emission at 615 nm. Data were analysed using GraphPad Prism and fitted to a 4-parameter logistic equation. The IC50 values were calculated using the DMSO vehicle as the negative control and a high concentration (6 μM) of a reference IL-17A inhibitor as the positive control.
Activity of the Example compounds is reported as a pIC50 value in Table A.
(In Alpha technology, singlet oxygen from a donor bead excites a nearby acceptor bead.)
In the case of `Cc1cnn(C)c1-c1ncc(NC(=O)[C@@H](NC(=O)c2ccnn2C)[C@H]2CC[C@H](C)CC2)cc1F` [Example 98, N-((S)-2-((6-(1,4-dimethyl-1H-pyrazol-5-yl)-5-fluoropyridin-3-yl)amino)-1-((1 r,4S)-4-methylcyclohexyl)-2-oxoethyl)-1-methyl-1H-pyrazole-5-carboxamide], the “AlphaLISA pIC50” value is reported as 6.3*. In the case of `CCn1nccc1C(=O)N[C@H](C(=O)Nc1cnc(-c2c(C)cnn2C)c(F)c1)[C@H]1CC[C@H](C)CC1` [Example 108, N-((S)-2-((6-(1,4-dimethyl-1H-pyrazol-5-yl)-5-fluoropyridin-3-yl)amino)-1-((1 r,4S)-4-methylcyclohexyl)-2-oxoethyl)-1-ethyl-1H-pyrazole-5-carboxamide], the “AlphaLISA pIC50” value is recorded as 6.8*. For `Cc1nnn(C)c1-c1ccc(NC(=O)[C@@H](NC(=O)c2ccnn2C)[C@H]2CC[C@H](C)CC2)nc1` [Example 44, N-((S)-2-((5-(1,4-Dimethyl-1H-1,2,3-triazol-5-yl)pyridin-2-yl)amino)-1-((1r,4S)-4-methylcyclohexyl)-2-oxoethyl)-1-methyl-1H-pyrazole-5-carboxamide], the “AlphaLISA pIC50” value was 6.8*. The same measure, in the same setting: next, `COc1c(-c2ccc(NC(=O)[C@@H](NC(=O)c3ccnn3C)[C@H]3CC[C@H](C)CC3)nc2)ccnc1C` [Example 70, N-((S)-2-((3′-methoxy-2′-methyl-[3,4′-bipyridin]-6-yl)amino)-1-((1r,4S)-4-methylcyclohexyl)-2-oxoethyl)-1-methyl-1H-pyrazole-5-carboxamide]: 6.1*.

With `Cc1nsc(C)c1-c1ccc(NC(=O)[C@@H](NC(=O)c2cnnn2C)[C@H]2CC[C@H](C)CC2)nc1` [Example 116, N-((S)-2-((5-(3,5-dimethylisothiazol-4-yl)pyridin-2-yl)amino)-1-((1r,4S)-4-methylcyclohexyl)-2-oxoethyl)-1-methyl-1H-1,2,3-triazole-5-carboxamide], the “AlphaLISA pIC50” value was 6.0*.

In the case of `Cc1c(-c2ccc(NC(=O)[C@@H](NC(=O)c3ccnn3C)C3CCC(F)(F)CC3)cc2)ccc(=O)n1C` [Example 20, (S)-N-(1-(4,4-Difluorocyclohexyl)-2-((4-(1,2-dimethyl-6-oxo-1,6-dihydropyridin-3-yl)phenyl)amino)-2-oxoethyl)-1-methyl-1H-pyrazole-5-carboxamide], the “AlphaLISA pIC50” value was 6.0*. Still for that read-out and setting: as for `Cc1c(-c2ccc(NC(=O)[C@@H](NC(=O)c3ccnn3C)C3CCC(C)(C)CC3)cc2)ccc(=O)n1C` [Example 21, (S)-N-(2-((4-(1,2-Dimethyl-6-oxo-1,6-dihydropyridin-3-yl)phenyl)amino)-1-(4,4-dimethylcyclohexyl)-2-oxoethyl)-1-methyl-1H-pyrazole-5-carboxamide], the figure is 6.0*; as for `CCn1nccc1C(=O)N[C@H](C(=O)Nc1ccc(-c2c(C)c[n+]([O-])cc2C)cn1)[C@H]1CC[C@H](C)CC1` [Example 58, 6-((S)-2-(1-Ethyl-1H-pyrazole-5-carboxamido)-2-((1 r,4S)-4-methylcyclohexyl)acetamido)-3′,5′-dimethyl-[3,4′-bipyridine]1′-oxide], 6.9*. Same read-out and setting: next, `Cc1cnn(C)c1-c1ccc(NC(=O)[C@@H](NC(=O)c2ccnn2C)C2CCCC2)nc1` [Example 102, (S)-N-(1-cyclopentyl-2-((5-(1,4-dimethyl-1H-pyrazol-5-yl)pyridin-2-yl)amino)-2-oxoethyl)-1-methyl-1H-pyrazole-5-carboxamide]: 6.1*.

The experiment is the same for the next values; noted with them: compounds pre-incubated with IL-17A for 24 h at room temperature.
Take `Cc1c(-c2ccc(NC(=O)[C@@H](NC(=O)c3ccnn3C)[C@H]3CC[C@H](C)CC3)nc2)ccc(=O)n1C` [Example 8, N-((S)-2-((1′,2′-Dimethyl-6′-oxo-1′,6′-dihydro-[3,3′-bipyridin]-6-yl)amino)-1-((1 r,4S)-4-methylcyclohexyl)-2-oxoethyl)-1-methyl-1H-pyrazole-5-carboxamide]: the “AlphaLISA pIC50” value worked out at 6.0.
